Source: PubChem BioAssay (NCI)
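These data come from cells grown in 96-well plates and exposed to compound for 48 hours at five concentrations. At the TGI there is no net growth.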

Columns and labels:
Experiment in all cases: inhibition of tumour cell growth, NCI panel, 48 h
786-0 renal = system: 786-0 renal
A498 renal = system: A498 renal
A549 NSCLC = system: A549 NSCLC
ACHN renal = system: ACHN renal
CAKI-1 renal = system: CAKI-1 renal
CCRF-CEM leukemia = system: CCRF-CEM leukemia
COLO 205 colon = system: COLO 205 colon
DLD-1 colon = system: DLD-1 colon
DMS 114 small cell lung = system: DMS 114 small cell lung
DMS 273 small cell lung = system: DMS 273 small cell lung
EKVX NSCLC = system: EKVX NSCLC
HCC-2998 colon = system: HCC-2998 colon
HCT-15 colon = system: HCT-15 colon
HL-60(TB) leukemia = system: HL-60(TB) leukemia
HT29 colon = system: HT29 colon
IGROV1 ovarian = system: IGROV1 ovarian
K-562 leukemia = system: K-562 leukemia
KM12 colon = system: KM12 colon
KM20L2 colon = system: KM20L2 colon
LOX IMVI melanoma = system: LOX IMVI melanoma
LXFL 529 NSCLC = system: LXFL 529 NSCLC
M14 melanoma = system: M14 melanoma
MALME-3M melanoma = system: MALME-3M melanoma
MOLT-4 leukemia = system: MOLT-4 leukemia
NCI-H23 lung = system: NCI-H23 lung
NCI-H460 lung = system: NCI-H460 lung
NCI-H522 lung = system: NCI-H522 lung
OVCAR-4 ovarian = system: OVCAR-4 ovarian
OVCAR-5 ovarian = system: OVCAR-5 ovarian
OVCAR-8 ovarian = system: OVCAR-8 ovarian
RPMI-8226 leukemia = system: RPMI-8226 leukemia
RXF 393 renal = system: RXF 393 renal
RXF-631 renal = system: RXF-631 renal
SF-268 CNS = system: SF-268 CNS
SF-295 CNS = system: SF-295 CNS
SF-539 CNS = system: SF-539 CNS
SK-MEL-2 melanoma = system: SK-MEL-2 melanoma
SK-MEL-28 melanoma = system: SK-MEL-28 melanoma
SK-MEL-5 melanoma = system: SK-MEL-5 melanoma
SK-OV-3 ovarian = system: SK-OV-3 ovarian
SN12C renal = system: SN12C renal
SNB-19 CNS = system: SNB-19 CNS
SNB-75 CNS = system: SNB-75 CNS
SNB-78 CNS = system: SNB-78 CNS
SW-620 colon = system: SW-620 colon
TK-10 renal = system: TK-10 renal
U251 CNS = system: U251 CNS
UACC-257 melanoma = system: UACC-257 melanoma
UACC-62 melanoma = system: UACC-62 melanoma
UO-31 renal = system: UO-31 renal
XF 498 CNS = system: XF 498 CNS
HCT-116 colon = system: HCT-116 colon
HOP-62 NSCLC = system: HOP-62 NSCLC
HOP-92 NSCLC = system: HOP-92 NSCLC
M19-MEL melanoma = system: M19-MEL melanoma
NCI-H226 lung = system: NCI-H226 lung
OVCAR-3 ovarian = system: OVCAR-3 ovarian
SR leukemia = system: SR leukemia

SMILES: Cn1c2c([N+](=O)[O-])cccc2c(=O)c2c(O)cc3c(c21)C=CC(C)(C)O3
- TGI (786-0 renal): > 100 µM
- TGI (A498 renal): > 100 µM
- TGI (A549 NSCLC): > 100 µM
- TGI (ACHN renal): > 100 µM
- TGI (CAKI-1 renal): > 100 µM
- TGI (CCRF-CEM leukemia): > 100 µM
- TGI (COLO 205 colon): > 100 µM
- TGI (DLD-1 colon): > 100 µM
- TGI (DMS 114 small cell lung): > 100 µM
- TGI (DMS 273 small cell lung): > 100 µM
- TGI (EKVX NSCLC): > 100 µM
- TGI (HCC-2998 colon): > 100 µM
- TGI (HCT-15 colon): > 100 µM
- TGI (HL-60(TB) leukemia): > 100 µM
- TGI (HT29 colon): > 100 µM
- TGI (IGROV1 ovarian): > 100 µM
- TGI (K-562 leukemia): > 100 µM
- TGI (KM12 colon): > 100 µM
- TGI (KM20L2 colon): > 100 µM
- TGI (LOX IMVI melanoma): > 100 µM
- TGI (LXFL 529 NSCLC): > 100 µM
- TGI (M14 melanoma): > 100 µM
- TGI (MALME-3M melanoma): > 100 µM
- TGI (MOLT-4 leukemia): > 100 µM
- TGI (NCI-H23 lung): > 100 µM
- TGI (NCI-H460 lung): > 100 µM
- TGI (NCI-H522 lung): 27.8 µM
- TGI (OVCAR-4 ovarian): 81 µM
- TGI (OVCAR-5 ovarian): > 100 µM
- TGI (OVCAR-8 ovarian): > 100 µM
- TGI (RPMI-8226 leukemia): > 100 µM
- TGI (RXF 393 renal): 62.1 µM
- TGI (RXF-631 renal): > 100 µM
- TGI (SF-268 CNS): > 100 µM
- TGI (SF-295 CNS): 99.5 µM
- TGI (SF-539 CNS): 76.2 µM
- TGI (SK-MEL-2 melanoma): > 100 µM
- TGI (SK-MEL-28 melanoma): > 100 µM
- TGI (SK-MEL-5 melanoma): > 100 µM
- TGI (SK-OV-3 ovarian): > 100 µM
- TGI (SN12C renal): > 100 µM
- TGI (SNB-19 CNS): > 100 µM
- TGI (SNB-75 CNS): 84.5 µM
- TGI (SNB-78 CNS): > 100 µM
- TGI (SW-620 colon): > 100 µM
- TGI (TK-10 renal): > 100 µM
- TGI (U251 CNS): > 100 µM
- TGI (UACC-257 melanoma): > 100 µM
- TGI (UACC-62 melanoma): > 100 µM
- TGI (UO-31 renal): > 100 µM
- TGI (XF 498 CNS): 45.2 µM

SMILES: COc1ccc([C@@H]2C[C@@H]3C(=O)OC(=O)[C@@H]3c3c2c2ccccc2n3C)cc1
- TGI (786-0 renal): > 100 µM
- TGI (A498 renal): > 100 µM
- TGI (A549 NSCLC): > 100 µM
- TGI (CAKI-1 renal): > 100 µM
- TGI (CCRF-CEM leukemia): > 100 µM
- TGI (COLO 205 colon): > 100 µM
- TGI (DLD-1 colon): > 100 µM
- TGI (DMS 114 small cell lung): > 100 µM
- TGI (DMS 273 small cell lung): > 100 µM
- TGI (EKVX NSCLC): > 100 µM
- TGI (HCC-2998 colon): > 100 µM
- TGI (HCT-116 colon): > 100 µM
- TGI (HL-60(TB) leukemia): > 100 µM
- TGI (HOP-62 NSCLC): > 100 µM
- TGI (HOP-92 NSCLC): > 100 µM
- TGI (HT29 colon): > 100 µM
- TGI (IGROV1 ovarian): > 100 µM
- TGI (K-562 leukemia): > 100 µM
- TGI (KM12 colon): > 100 µM
- TGI (LXFL 529 NSCLC): > 100 µM
- TGI (M14 melanoma): > 100 µM
- TGI (M19-MEL melanoma): > 100 µM
- TGI (MALME-3M melanoma): > 100 µM
- TGI (MOLT-4 leukemia): > 100 µM
- TGI (NCI-H226 lung): > 100 µM
- TGI (NCI-H23 lung): > 100 µM
- TGI (NCI-H522 lung): > 100 µM
- TGI (OVCAR-3 ovarian): > 100 µM
- TGI (OVCAR-4 ovarian): > 100 µM
- TGI (OVCAR-8 ovarian): > 100 µM
- TGI (RPMI-8226 leukemia): > 100 µM
- TGI (RXF-631 renal): > 100 µM
- TGI (SF-268 CNS): > 100 µM
- TGI (SF-295 CNS): > 100 µM
- TGI (SF-539 CNS): > 100 µM
- TGI (SK-MEL-2 melanoma): > 100 µM
- TGI (SK-MEL-28 melanoma): > 100 µM
- TGI (SK-OV-3 ovarian): > 100 µM
- TGI (SN12C renal): > 100 µM
- TGI (SNB-19 CNS): > 100 µM
- TGI (SNB-75 CNS): > 100 µM
- TGI (SR leukemia): > 100 µM
- TGI (SW-620 colon): > 100 µM
- TGI (TK-10 renal): > 100 µM
- TGI (UACC-257 melanoma): > 100 µM
- TGI (UACC-62 melanoma): > 100 µM
- TGI (UO-31 renal): > 100 µM
- TGI (XF 498 CNS): > 100 µM

SMILES: O=C1c2ccccc2C(=O)N1C/C=N/NS(=O)(=O)c1ccc(F)cc1
- TGI (786-0 renal): > 100 µM
- TGI (A549 NSCLC): > 100 µM
- TGI (ACHN renal): > 100 µM
- TGI (CAKI-1 renal): > 100 µM
- TGI (CCRF-CEM leukemia): > 100 µM
- TGI (COLO 205 colon): > 100 µM
- TGI (DLD-1 colon): > 100 µM
- TGI (DMS 114 small cell lung): > 100 µM
- TGI (DMS 273 small cell lung): > 100 µM
- TGI (EKVX NSCLC): > 100 µM
- TGI (HCC-2998 colon): > 100 µM
- TGI (HCT-116 colon): > 100 µM
- TGI (HCT-15 colon): > 100 µM
- TGI (HL-60(TB) leukemia): > 100 µM
- TGI (IGROV1 ovarian): > 100 µM
- TGI (K-562 leukemia): > 100 µM
- TGI (KM12 colon): > 100 µM
- TGI (KM20L2 colon): > 100 µM
- TGI (LOX IMVI melanoma): > 100 µM
- TGI (LXFL 529 NSCLC): > 100 µM
- TGI (M19-MEL melanoma): > 100 µM
- TGI (MALME-3M melanoma): > 100 µM
- TGI (MOLT-4 leukemia): > 100 µM
- TGI (NCI-H226 lung): > 100 µM
- TGI (NCI-H23 lung): > 100 µM
- TGI (NCI-H522 lung): > 100 µM
- TGI (OVCAR-4 ovarian): > 100 µM
- TGI (OVCAR-8 ovarian): > 100 µM
- TGI (RPMI-8226 leukemia): > 100 µM
- TGI (RXF-631 renal): > 100 µM
- TGI (SF-268 CNS): > 100 µM
- TGI (SF-295 CNS): > 100 µM
- TGI (SF-539 CNS): > 100 µM
- TGI (SK-MEL-2 melanoma): > 100 µM
- TGI (SK-MEL-5 melanoma): > 100 µM
- TGI (SN12C renal): > 100 µM
- TGI (SNB-19 CNS): > 100 µM
- TGI (SNB-75 CNS): > 100 µM
- TGI (SR leukemia): > 100 µM
- TGI (SW-620 colon): > 100 µM
- TGI (TK-10 renal): > 100 µM
- TGI (U251 CNS): > 100 µM
- TGI (UACC-257 melanoma): > 100 µM
- TGI (UACC-62 melanoma): > 100 µM
- TGI (UO-31 renal): > 100 µM
- TGI (XF 498 CNS): > 100 µM
